Residues, ends and D or L forms follow the SMILES beside them.
Tested on: MIP1α induced human monocyte migration
Assay: Migration of freshly prepared peripheral blood monocytes, MIP1α
Format: cell-based
Protocol: Agents may also be screened in a chemotactic assay which employs human neutrophils, eosinophils, mast cells, basophils, platelets, lymphocytes or monocytes. For monocytes, 9 mls of fresh blood are transferred to a tube containing 1 ml of 3.8% sodium citrate, and left at room temperature for 15 minutes. Five mls of this anti-coagulated blood are carefully layered over 3.5 ml Polymorphprep® (Nycomed Pharma, Oslo), and centrifuged at 500 g for 35 minutes per the manufacturer's instructions. The top band at the sample/medium interface contains monocytes. The monocytes are carefully removed with a glass pipette, and reconstituted to the original volume (5 ml). The cells are washed with PBS plus 10% fetal calf serum, and centrifuged at 400 g for 10 minutes. The washing step is repeated three times before the cells are counted. Cells are resuspended at 1 × 10^7 cells/ml in RPMI-1640 + 10% fetal calf serum (FCS). The monocytes are cultured for two days at 37°C in a humidified atmosphere of 5% CO2-
On day 2, the cells are counted, spun down, and reconstituted to 1 × 10^7 cells/ml in Gey's balanced salt solution + 1 mg/ml bovine serum albumin (BSA). […]

Compound: CC[C@H](C)[C@H](NC(=O)[C@H](C)NC(=O)[C@H](CC(=O)O)NC(=O)[C@@H]1CCCN1C(=O)[C@H](CCC(N)=O)NC(=O)[C@H](C)N)C(=O)N[C@@H](CC(N)=O)C(=O)N[C@@H](C)C(=O)N1CCC[C@H]1C(=O)N[C@H](C(=O)N[C@H](C(=O)N[C@@H](CS)C(=O)N[C@@H](CS)C(=O)O)[C@@H](C)O)C(C)C [Peptide 1] (H-AQPDAINAPVTCC-OH; N-terminus and C-terminus assumed)
- % inhibition at 100 µM versus MIP1α: n.s.

Source: patent publication EP2386565A2, “Compounds and methods to inhibit or augment an inflammatory response” (Cambridge Enterprise Ltd., priority 1999, dated 2000)
